Laboratory results as given in patent publication US10966994B2, “Thromboxane receptor antagonists” (ATXA THERAPEUTICS LIMITED, priority 2015, dated 2021).

Key:
TPα [1] = molecular target: T1, TPα (Homo sapiens, UniProt P21731); assay: U46619-mediated calcium mobilization in HEK.TPα cells; format: cell-based; conditions: for IC50: 1 μM U46619, estimated IC50, mean ± S.E.M., read-out: IC50 values for Inhibition of U46619-Mediated [Ca2+]i Mobilisation, TPα; for inhibition of U46619-mediated calcium mobilization, TPα (in words): 1 μM U46619
T1 construct: expressed in transfected cells; host or cells: HEK 293 (HEK.TPα, isolate HR #4)
T1 sequence (P21731 1-343): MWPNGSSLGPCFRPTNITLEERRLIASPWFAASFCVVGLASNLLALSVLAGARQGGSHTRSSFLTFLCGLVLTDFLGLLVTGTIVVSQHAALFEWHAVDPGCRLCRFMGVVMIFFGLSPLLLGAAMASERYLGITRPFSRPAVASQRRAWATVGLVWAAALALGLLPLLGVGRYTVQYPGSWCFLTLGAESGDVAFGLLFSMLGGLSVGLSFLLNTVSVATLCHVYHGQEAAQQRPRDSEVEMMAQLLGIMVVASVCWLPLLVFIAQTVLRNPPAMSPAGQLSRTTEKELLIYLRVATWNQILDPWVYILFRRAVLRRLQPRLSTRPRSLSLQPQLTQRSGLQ
Description: (§1) NTP42-NTP49, northern group variants of NTP4, were assessed through calcium mobilization assays using proprietary HEK 293 cells over-expressing the thromboxane (TX)A2 receptor, α (TPα) and β (TPβ) isoforms, referred to as HEK.TPα and HEK.TPβ cells, respectively. The initial screening involved dose-responses assays (concentrations used 0.0001 (TPβ only), 0.001, 0.1, 1 & 10 μM; (TPα and TPβ)) followed by more focused, full dose response assays (concentration range: 0.00001 to 10 μM) for determination of IC50 values where the effect of the compounds on calcium mobilized in response to the TXA2 mimetic U46619 (1 μM) were performed in side-by-side comparison with the key lead compounds TP20 and NTP4.
(§2) As stated, NTP42-NTP49 were screened through calcium mobilization assays using HEK.TPα and HEK.TPβ cells over-expressing the thromboxane (TX)A2 receptor, α (TPα) and β (TPβ) isoforms, respectively. The initial screening involved dose-response assays where the compounds, used at 0.0001 (TPβ only), 0.001, 0.1, 1 & 10 μM (TPα and TPβ), were assessed for their ability to inhibit the TXA2 mimetic U46619 (1 μM). The compounds were tested in side-by-side assays with the previously identified key lead compounds TP20 and NTP4.
(§3) HEK.TPα (HR #4) cells, preloaded with Fluo-4, were incubated with the TP20, NTP4, NTP42, NTP43, NTP44, NTP45, NTP47, NTP48 & NTP49 where each antagonist was used at 0.001, 0.1, 1 & to 10 μM, as indicated, prior to stimulation with 1 μM U46619. Data is presented as the mean (±S.E.M.) percentage of the agonist-induced response in vehicle-treated cells (Percentage of Control; %) and represents data from at least 4 independent experiments were cells were treated in duplicate.
as §3, with “NTP42, NTP43 and” for “NTP42, NTP43, NTP44, NTP45, NTP47,”, “NTP48” for “NTP48 & NTP49”, “at 0.00001-10” for “at 0.001, 0.1, 1 & to 10”, “the agonist induced” for “the agonist-induced”, “least 3” for “least 4”

TPβ [2] = molecular target: T2, TPβ (Homo sapiens, UniProt P21731); assay: U46619-mediated calcium mobilization in HEK.TPβ cells; format: cell-based; conditions: for IC50: 1 μM U46619, estimated IC50, mean ± S.E.M., read-out: IC50 values for Inhibition of U46619-Mediated [Ca2+]i Mobilisation, TPβ; for inhibition of U46619-mediated calcium mobilization, TPβ (in words): 1 μM U46619
T2 construct: expressed in transfected cells; host or cells: HEK 293 (HEK.TPβ, isolate EM #8)
Description: as §1, §2
as §3, with “HEK.TPβ (EM #8) cells, preloaded” for “HEK.TPα (HR #4) cells, preloaded”, “used at 0.0001, 0.001, 0.1,” for “used at 0.001, 0.1,”
as §3, with “HEK.TPβ (EM #8)” for “HEK.TPα (HR #4)”, “NTP43 and” for “NTP43, NTP44, NTP45, NTP47,”, “NTP48” for “NTP48 & NTP49”, “0.00001-10” for “0.001, 0.1, 1 & to 10”

TPα [3] = molecular target: T1, TPα; assay: 8-iso-PGF2α-mediated calcium mobilization in HEK.TPα cells; format: cell-based; conditions: 10 μM 8-iso-PGF2α, estimated IC50, read-out: IC50 values for inhibition of 8-iso-PGF2α-mediated [Ca2+]i mobilization, TPα
Description: (§4) Effect of NTP42-NTP48 on 8-iso-PGF2α-mediated Calcium Mobilization In addition, to assessment of the compounds to antagonise U46619-mediated responses, the ability of NTP42 & NTP43 to inhibit the partial TP agonist 8-iso-PGF2α has been examined through calcium mobilization assays in HEK.TPα and HEK.TPβ cells.
(§5) Data is presented as the mean (±S.E.M.) percentage of the agonist-induced response in vehicle-treated cells (Percentage of Control; %) and represents data from at least 3 independent experiments were cells were treated in duplicate, except NTP48.

EP4 receptor = EP4 receptor (Homo sapiens, UniProt P35408); assay: Specificity testing, EP4 receptor signaling; format: cell-based
Description: There is no or minimal inhibition of the majority of the non-TP-mediated signaling observed in the presence of either NTP42 & NTP48. Where there is inhibition of signaling, it is observed at the 10 μM concentration only. […] Compared to NTP42, NTP48 has less of an effect on the signaling of the non-TP prostanoid receptors and therefore, may be considered more favorable in this context.

TPβ [4] = molecular target: T2, TPβ; assay: 8-iso-PGF2α-mediated calcium mobilization in HEK.TPβ cells; format: cell-based; conditions: 10 μM 8-iso-PGF2α, estimated IC50, read-out: IC50 values for inhibition of 8-iso-PGF2α-mediated [Ca2+]i mobilization, TPβ
Description: as §4, §5

Cell permeability = format: in vitro ADME

EP4 receptor, sequence (P35408 whole entry): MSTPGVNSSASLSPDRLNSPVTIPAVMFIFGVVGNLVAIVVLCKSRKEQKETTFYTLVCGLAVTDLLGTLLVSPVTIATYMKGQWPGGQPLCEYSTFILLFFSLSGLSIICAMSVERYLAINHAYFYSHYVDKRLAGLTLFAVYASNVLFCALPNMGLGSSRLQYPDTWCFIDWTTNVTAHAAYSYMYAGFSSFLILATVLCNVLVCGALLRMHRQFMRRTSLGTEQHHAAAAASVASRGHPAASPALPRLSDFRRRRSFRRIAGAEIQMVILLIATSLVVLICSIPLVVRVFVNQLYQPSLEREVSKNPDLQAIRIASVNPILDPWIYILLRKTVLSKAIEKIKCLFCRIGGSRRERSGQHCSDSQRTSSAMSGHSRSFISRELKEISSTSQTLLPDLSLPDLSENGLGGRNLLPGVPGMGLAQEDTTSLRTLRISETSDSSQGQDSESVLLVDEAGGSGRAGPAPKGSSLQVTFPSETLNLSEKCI
T2 sequence (P21731 1-407 isoform P21731-2): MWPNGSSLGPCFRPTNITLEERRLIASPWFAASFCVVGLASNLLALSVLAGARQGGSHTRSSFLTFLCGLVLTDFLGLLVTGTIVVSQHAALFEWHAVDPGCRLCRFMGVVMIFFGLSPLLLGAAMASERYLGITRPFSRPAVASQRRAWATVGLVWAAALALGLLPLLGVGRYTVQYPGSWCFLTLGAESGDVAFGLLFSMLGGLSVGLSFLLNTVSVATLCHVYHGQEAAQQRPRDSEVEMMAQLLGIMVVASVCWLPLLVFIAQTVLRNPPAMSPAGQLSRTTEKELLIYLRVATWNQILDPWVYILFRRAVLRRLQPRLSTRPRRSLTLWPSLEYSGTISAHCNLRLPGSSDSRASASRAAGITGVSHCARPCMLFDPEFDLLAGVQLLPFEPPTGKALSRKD

Row | Structure (SMILES) | IC50 (TPβ [2]) [nM] | IC50 (TPα [3]) [nM] | IC50 (TPβ [4]) [nM] | cell permeability (Cell permeability) | toxicity (Toxicity) | IC50 (TPα [1]) [nM] | effect on the EP4 receptor (EP4 receptor) | inhibition of U46619-mediated calcium mobilization, TPα (in words) (TPα [1]) | inhibition of U46619-mediated calcium mobilization, TPβ (in words) (TPβ [2]) | percentage reduction in responses, EP4 (EP4 receptor; maximal inhibition, at 10 μM only) [%]
1 | CC(C)(C)NC(=O)NS(=O)(=O)c1cc(C#N)ccc1Oc1cccc(-c2ccc(OC(F)F)cc2)c1 [NTP42] | 8.25 ± 0.73 | 12.8 ± 1.42 | 8 ± 1 | favorable cell permeability | minimal toxicity | 56.2 ± 4.84 | no effect | – | – | 40
2 | CN(C)C(=O)c1ccc(-c2cccc(Oc3ccc(C#N)cc3S(=O)(=O)NC(=O)NC(C)(C)C)c2)cc1 [NTP48, 4-[3-[2-(tert-Butylcarbamoylsulfamoyl)-4-cyano-phenoxy]phenyl]-N,N-dimethyl-benzamide] | 5.06 ± 1.5 | 29.3 ± 3.87 | 15.4 ± 2.16 | favorable cell permeability | minimal toxicity | 90.1 ± 6.43 | no effect | – | – | –
3 | COc1ccc(-c2cccc(Oc3ccc([N+](=O)[O-])cc3S(=O)(=O)NC(=O)NC(C)(C)C)c2)cc1 [TP20, reference compound] | – | 46.4 ± 4.24 | 17 ± 2.12 | – | – | 125 ± 11.4 | like TP20 and NTP4, neither NTP42, NTP43 nor NTP48 exhibited any effect | potently inhibited | potently inhibited | –

Second part, led by results:

Row | IC50 (TPβ [2]) [nM] | IC50 (TPα [3]) [nM] | IC50 (TPβ [4]) [nM] | cell permeability (Cell permeability) | Structure (SMILES) | toxicity (Toxicity) | IC50 (TPα [1]) [nM] | effect on the EP4 receptor (EP4 receptor) | inhibition of U46619-mediated calcium mobilization, TPα (in words) (TPα [1]) | inhibition of U46619-mediated calcium mobilization, TPβ (in words) (TPβ [2]) | percentage reduction in responses, EP4 (EP4 receptor; maximal inhibition, at 10 μM only) [%]
4 | 18.4 ± 1.63 | 30.7 ± 5.05 | 9 ± 1.6 | favorable cell permeability | CC(C)(C)NC(=O)NS(=O)(=O)c1cc(C#N)ccc1Oc1cccc(-c2ccc(OC(F)(F)F)cc2)c1 [NTP43] | minimal toxicity | 105 ± 7.95 | not to exhibit any effect | – | – | –
5 | – | 103 ± 11.1 | 58 ± 6.31 | – | COc1ccc(-c2cccc(Oc3ccc(C#N)cc3S(=O)(=O)NC(=O)NC(C)(C)C)c2)cc1 [NTP4, reference compound] | – | – | like TP20 and NTP4, neither NTP42, NTP43 nor NTP48 exhibited any effect | potently inhibited | potently inhibited | –
